# Experimental data taken from patent US7906300B2, “Methods for diagnosing an attention-deficit/Hyperactivity disorder” (PsychNostics, LLC, priority 2005, dated 2011).
# Tests used:
# Assay type in all cases: cell-based, human
# [1] = tested on: lymphoblasts; experiment: Rate of drop in membrane potential (repolarization rate) of lymphoblasts, with/without compound; conditions: 30 min, K+-free and K+-containing buffer
# Method: (§1) The membrane potentials of the bipolar I cells shown in Table 4 above (as well as in all other experiments, except where indicated) were measured using the following protocol. The cells cultured in the media described above were centrifuged at 210 g for 5 minutes at room temperature, then suspended in 3 ml of K^+-containing stock buffer (5 mM KCl, 4 mM NaHCO3, 5 mM HEPES, 134 mM NaCl, 2.3 mM CaCl2, and 5 mM glucose). The cells were counted and the desired number of cells were again suspended in the K^+-containing buffer. The membrane potentials were measured using 3,3′-dihexyloxacarbocyanine iodide DiOC6(3), a cell-permeant, voltage sensitive, green-fluorescent dye (Molecular Probes Inc. Eugene, Oreg. USA). […]
# (§2) A fluorescence spectrometer (F2500 Hitachi, Japan) was used for the measurement of the membrane potential by measuring the fluorescence intensity of DiOC6(3), which is directly proportional to the membrane potential. The intensity of fluorescence was measured at an excitation wavelength of 488 nm and an output wavelength of 540 nm. […]
# The rate of drop in membrane potential after incubation with the protein kinase C (PKC) activator, phorbol 12-myristate 13-acetate (PMA), was compared in affected cells to that of unaffected cells. The membrane potential of these cells was determined by measuring the fluorescence intensity as described above. […]
# [2] = tested on: whole blood cells; experiment: Membrane potential ratio of whole blood cells, clinical trials (DiOC6(3) fluorescence); conditions: for ratio of intensity in K+-free buffer with 30 μM ethacrynate to intensity in K+-containing buffer without ethacrynate, Median: plate reader
# Method: Because the volume of blood required to collect enough lymphocytes was beyond that permitted by the current protocol, the membrane potential of whole blood cells was determined. The volume of whole blood required was approximately 1 ml. The blood samples were kept on ice until they were stored at 4° C. All of the samples were tested within 48 hours.
# Whole blood samples drawn from patients and controls were suspended in K^+-containing buffer without ethacrynate and in K^+-free buffer with 30 μM ethacrynate or with 100 mM sorbitol. The fluorescent dye DiOC6(3) was added to both suspensions and incubated for 30 minutes. The cell suspensions loaded with the dye were centrifuged, drained and resuspended in the respective buffers. The fluorescence intensity was measured for 10 seconds and the ratio of the intensity in K^+-free buffer to the intensity in K^+-containing buffer was calculated.
# Whole blood samples drawn from patients and controls were suspended both in K^+-containing buffer and in K^+-free buffer with 30 μM ethacrynate or with 100 μM sorbitol. The fluorescent dye DiOC6(3) was added to both suspensions and incubated for 30 minutes. The cell suspensions loaded with the dye were centrifuged, drained and resuspended in the respective buffers. The fluorescence intensity was measured for 10 seconds and the ratio of the intensity in K^+-free buffer to the intensity in K^+-containing buffer was calculated.
# An individual patient's cell sample was tested as described herein and six to twelve ratios were calculated. These values were treated as a group and compared with a normal control group (negative control) and a bipolar group (positive control).
# (§3) Cells from control, bipolar I and bipolar II individuals were compared amongst each other as described herein. Whole blood samples drawn from patients and controls and aliquots were suspended either in K^+-containing buffer without ethacrynate, or in K^+-free buffer with 30 μM ethacrynate. The fluorescent dye DiOC6(3) was added to the suspensions and incubated for 30 minutes. The cell suspensions loaded with the dye were centrifuged, drained and resuspended in the respective buffers. The fluorescence intensity was measured for 10 seconds and the ratio of the intensity in K^+-free buffer to the intensity in K^+-containing buffer was calculated. Plate Reader (PerkinsElmer Victor V) was used for intensity measurements).
# as §3, with “ADHD” for “bipolar II”
# [3] = tested on: lymphoblasts; experiment: Membrane potential of lymphoblasts by DiOC6(3) fluorescence intensity ratio, with/without compound
# From the text: Three groups of immortalized lymphoblast samples were obtained from the Human Genetic Mutant Cell Repository (Coriell Institute for Medical Research, Camden N.J.). The samples are shown in Table 4 below and included six from affected (bipolar I disorder) patients (A1 through A6), six from their siblings (S1 through S6), and six from unrelated normal control subjects matched by age and sex (N1 through N6).
# as §1, §2
# Membrane potential was expressed according to fluorescence intensity using the following equation: I=CV, wherein I is the fluorescence intensity of a lipophilic fluorescent dye DiOC6(3) being only one example of such a dye); V is the voltage or membrane potential; and C is a constant that can vary depending on a number of factors such as, but not limited to, temperature, lamp intensity, number of cells, concentration of the fluorescent dye, incubation time, and lipid composition of cells used. […]
# Membrane potentials were also measured in K^+-free buffer to enable comparison with membrane potentials in K^+-containing buffer. […]
# [4] = tested on: whole blood cells; experiment: Membrane potential ratio of whole blood cells, clinical trials (DiOC6(3) fluorescence); conditions: open trial; bipolar patients; 100 mM sorbitol; FIG. 13
smiles,measurement,setting,value
"CCCCCCCCCCCCCC(=O)O[C@@H]1[C@@H](C)[C@@]2(O)[C@@H](C=C(CO)C[C@]3(O)C(=O)C(C)=C[C@@H]23)[C@@H]2C(C)(C)[C@]12OC(C)=O [PMA, phorbol 12-myristate 13-acetate]",relative ratio of repolarization rates in affected cells compared with unaffected cells,"[1]; 2 μM PMA, P=0.046, FIG. 10",significantly lower
C=C(CC)C(=O)c1ccc(OCC(=O)O)c(Cl)c1Cl [ethacrynate],relative rate of repolarization in affected cells compared with unaffected cells,"[1]; 30 μM ethacrynate, P=0.041, FIG. 7",significantly higher
same,"ratio of fluorescence intensity in K+-free buffer containing 30 μM ethacrynate to that in K+-containing buffer without ethacrynate, Mean","[2]; blind clinical trial, Controls",0.850
same,"ratio of fluorescence intensity in K+-free buffer containing 30 μM ethacrynate to that in K+-containing buffer without ethacrynate, Median","[2]; blind clinical trial, Controls",0.850
same,"ratio of fluorescence intensity in K+-free buffer containing 30 μM ethacrynate to that in K+-containing buffer without ethacrynate, Mean","[2]; blind clinical trial, Schizophr.",0.870
same,"ratio of fluorescence intensity in K+-free buffer containing 30 μM ethacrynate to that in K+-containing buffer without ethacrynate, Mean",[2]; individual Patient A (diagnosed bipolar),0.766
same,"ratio of fluorescence intensity in K+-free buffer containing 30 μM ethacrynate to that in K+-containing buffer without ethacrynate, Mean","[2]; open clinical trial, Bipolars",0.780
same,"ratio of intensity in K+-free buffer with 30 μM ethacrynate to intensity in K+-containing buffer without ethacrynate, Median",[2]; ADHD group,0.808
same,"ratio of intensity in K+-free buffer with 30 μM ethacrynate to intensity in K+-containing buffer without ethacrynate, Median",[2]; BPD I group,0.606
same,"ratio of intensity in K+-free buffer with 30 μM ethacrynate to intensity in K+-containing buffer without ethacrynate, Median",[2]; BPD II group,0.648
same,"ratio of intensity in K+-free buffer with 30 μM ethacrynate to intensity in K+-containing buffer without ethacrynate, Median",[2]; Negative (control) group,0.676
same,relative intensity ratio of affected cells compared with unaffected cells,"[3]; 30 μM ethacrynate, K+-free vs K+-containing buffer, t-test P=0.009, FIG. 5",significantly higher
same,intensity ratio (membrane potential with ethacrynate/without ethacrynate) of affected cells compared with unaffected cells,"[3]; K+-free buffer, 30 μM ethacrynate, t-test P=0.032, FIG. 6",significantly higher
CC[C@@]1([C@@H]2O[C@@H]([C@H]3O[C@@](O)(CO)[C@H](C)C[C@@H]3C)C[C@@H]2C)CC[C@H]([C@]2(C)CC[C@]3(C[C@H](O)[C@@H](C)[C@@H]([C@@H](C)[C@@H](OC)[C@H](C)C(=O)O)O3)O2)O1 [monensin],intensity ratio (membrane potential with monensin/without monensin) of affected cells compared with unaffected cells,"[3]; K+-free buffer, 10 μM monensin, 30 min, t-test P=0.009, FIG. 8",significantly lower
OC[C@@H](O)[C@@H](O)[C@H](O)[C@@H](O)CO [sorbitol],"fluorescence intensity ratio of bipolar cells with sorbitol in K+-free buffer, compared with ethacrynate",[4],comparable to the results with ethacrynate
